Source: US7691858B2, “Kinase inhibitors and methods of use thereof” (TargeGen, Inc., priority 2006, dated 2010)

What was measured:
MAPK1 = target: T1, MAPK1 (Homo sapiens, UniProt P27361); experiment: Kinase panel screen; type: biochemical; conditions: Compound I and ATP 10 μM
T1 construct: purchased Upstate USA or Invitrogen (commercial screening service)

PKBa = target: T2, PKBa (Homo sapiens, UniProt P31749); experiment: Kinase panel screen; type: biochemical; conditions: read-out: Percent Control, PKBa
T2 construct: purchased Upstate USA or Invitrogen (contract screening service)

DDR2 = target: T3, DDR2 (Homo sapiens, UniProt Q16832); experiment: Kinase panel screen; type: biochemical; conditions: Compound I and ATP 10 μM
T3 construct: purchased Upstate USA or Invitrogen (commercial screening service)

ERK phosphorylation = experiment: VEGF-stimulated ERK phosphorylation in EC (Western blot); type: cell-based; conditions: 10 uM Compound I, EC with VEGF
Protocol: FIG. 3. Inhibition of cell proliferation and signaling. (a) EC were cultured in the presence of vehicle (DMSO) or PI3K inhibitors (all at 10 μM); cell proliferation was assessed either 24 (open bar), 48 (grey bar), or 72 h (black bar) later.
Western blots: Cell cultures were rinsed twice with PBS and then lysed using RIPA buffer (100 mM Tris, 150 mM NaCl, 2 mM CaCl2, 1% deoxycholic acid, 1% Triton X-100, 0.1% SDS, pH 7.5) containing PMSF (2 mM), NaF (500 mM), aprotinin (10 μg/ml), leupeptin (10 μg/ml) and vanadate (1 mM). Tissue samples were placed in ice-cold RIPA buffer and processed to lysates using a FastPrep homogenizer (QBiogene, Carlsbad, Calif.). Lysates were centrifuged at 15,000×g followed by assay for total protein using the bicinchoninic acid method (Pierce Biotechnology, Rockford, Ill.), then loaded at equal protein concentration onto gels for SDS-PAGE electrophoresis and Western blotting. For phosphorylated VE-cadherin detection blots were probed with primary antibody (Santa Cruz Biotechnology, Santa Cruz, Calif.) followed by a chemiluminescent detection system (Pierce Biotechnology). The same techniques were used to detect both phosphorylated and total ERK and Akt, except that primary antibodies were supplied by Cell Signaling Technology (Beverly, Mass.) and BD Biosciences (San Jose, Calif.), respectively.

CaMKIV = target: T4, CaMKIV (Homo sapiens, UniProt Q16566); experiment: Kinase panel screen; type: biochemical; conditions: Compound I and ATP 10 μM
T4 construct: purchased Upstate USA or Invitrogen (commercial screening service)

SGK = target: T5, SGK (Homo sapiens, UniProt O00141, S422D); experiment: Kinase panel screen; type: biochemical; conditions: Compound I and ATP 10 μM
T5 construct: purchased Upstate USA or Invitrogen (commercial screening service)

Aurora-A = target: T6, Aurora-A (Homo sapiens, UniProt O14965); experiment: Kinase panel screen; type: biochemical; conditions: Compound I and ATP 10 μM
T6 construct: purchased Upstate USA or Invitrogen (contract screening service)

INK3 = INK3 (Rattus norvegicus, UniProt P49187); experiment: Kinase panel screen; type: biochemical; conditions: Compound I and ATP 10 μM
Chain of INK3 (P49187 whole entry): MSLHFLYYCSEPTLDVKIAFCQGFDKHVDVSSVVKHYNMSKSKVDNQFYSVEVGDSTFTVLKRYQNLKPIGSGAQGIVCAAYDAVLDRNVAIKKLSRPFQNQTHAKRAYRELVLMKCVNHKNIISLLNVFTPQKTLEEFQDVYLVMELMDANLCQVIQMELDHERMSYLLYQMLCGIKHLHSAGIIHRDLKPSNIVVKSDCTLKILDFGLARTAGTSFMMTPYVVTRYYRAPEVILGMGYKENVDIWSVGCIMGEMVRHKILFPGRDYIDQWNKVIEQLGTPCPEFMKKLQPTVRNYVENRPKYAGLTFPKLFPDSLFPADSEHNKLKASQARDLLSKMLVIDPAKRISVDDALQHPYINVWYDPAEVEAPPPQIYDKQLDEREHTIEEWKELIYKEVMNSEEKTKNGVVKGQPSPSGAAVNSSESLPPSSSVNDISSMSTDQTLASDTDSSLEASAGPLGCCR

T5 sequence (O00141 60-431 S422D limits assumed): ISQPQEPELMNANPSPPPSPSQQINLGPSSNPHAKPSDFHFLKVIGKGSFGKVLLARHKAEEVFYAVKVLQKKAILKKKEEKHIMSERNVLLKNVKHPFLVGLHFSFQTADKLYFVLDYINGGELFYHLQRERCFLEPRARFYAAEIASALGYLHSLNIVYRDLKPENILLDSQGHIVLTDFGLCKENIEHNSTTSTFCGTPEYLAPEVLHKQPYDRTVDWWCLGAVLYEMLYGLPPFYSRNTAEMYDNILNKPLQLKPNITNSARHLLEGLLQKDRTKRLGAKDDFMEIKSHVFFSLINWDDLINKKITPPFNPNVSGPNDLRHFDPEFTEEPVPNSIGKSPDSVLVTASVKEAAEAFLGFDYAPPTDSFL
T1 sequence (P27361 2-379 limits assumed): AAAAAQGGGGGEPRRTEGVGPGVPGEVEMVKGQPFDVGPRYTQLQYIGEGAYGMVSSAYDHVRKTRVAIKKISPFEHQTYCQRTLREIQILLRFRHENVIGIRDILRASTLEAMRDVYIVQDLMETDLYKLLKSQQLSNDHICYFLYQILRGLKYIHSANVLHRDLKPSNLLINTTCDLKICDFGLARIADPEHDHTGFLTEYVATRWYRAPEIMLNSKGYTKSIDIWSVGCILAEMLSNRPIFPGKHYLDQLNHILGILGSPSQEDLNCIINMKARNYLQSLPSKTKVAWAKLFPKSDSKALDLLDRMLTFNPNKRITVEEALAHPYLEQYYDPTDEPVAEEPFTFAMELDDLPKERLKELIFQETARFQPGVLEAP
T6 sequence (O14965 whole entry): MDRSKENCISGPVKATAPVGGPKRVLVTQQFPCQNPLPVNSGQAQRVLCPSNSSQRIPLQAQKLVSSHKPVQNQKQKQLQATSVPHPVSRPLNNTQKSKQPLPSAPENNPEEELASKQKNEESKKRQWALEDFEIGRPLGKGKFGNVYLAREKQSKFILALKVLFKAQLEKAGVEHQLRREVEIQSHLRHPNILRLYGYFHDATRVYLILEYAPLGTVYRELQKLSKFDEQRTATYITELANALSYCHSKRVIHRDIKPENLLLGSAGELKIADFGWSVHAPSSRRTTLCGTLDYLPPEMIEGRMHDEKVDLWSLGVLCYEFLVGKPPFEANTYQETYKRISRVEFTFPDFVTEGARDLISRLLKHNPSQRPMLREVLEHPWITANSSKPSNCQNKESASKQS
T4 sequence (Q16566 whole entry): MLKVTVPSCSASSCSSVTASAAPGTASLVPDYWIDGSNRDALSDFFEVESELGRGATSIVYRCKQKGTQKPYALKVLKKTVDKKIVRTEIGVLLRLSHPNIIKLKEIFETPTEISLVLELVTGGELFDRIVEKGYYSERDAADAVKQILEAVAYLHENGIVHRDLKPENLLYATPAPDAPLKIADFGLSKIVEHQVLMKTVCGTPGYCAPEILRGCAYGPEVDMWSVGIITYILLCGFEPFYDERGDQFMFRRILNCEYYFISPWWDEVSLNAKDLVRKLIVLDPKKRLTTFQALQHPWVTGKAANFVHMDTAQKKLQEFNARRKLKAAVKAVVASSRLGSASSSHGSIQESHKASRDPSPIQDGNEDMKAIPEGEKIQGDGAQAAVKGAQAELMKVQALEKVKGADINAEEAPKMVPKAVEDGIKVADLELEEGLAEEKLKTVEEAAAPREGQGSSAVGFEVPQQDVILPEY
T2 sequence (P31749 whole entry): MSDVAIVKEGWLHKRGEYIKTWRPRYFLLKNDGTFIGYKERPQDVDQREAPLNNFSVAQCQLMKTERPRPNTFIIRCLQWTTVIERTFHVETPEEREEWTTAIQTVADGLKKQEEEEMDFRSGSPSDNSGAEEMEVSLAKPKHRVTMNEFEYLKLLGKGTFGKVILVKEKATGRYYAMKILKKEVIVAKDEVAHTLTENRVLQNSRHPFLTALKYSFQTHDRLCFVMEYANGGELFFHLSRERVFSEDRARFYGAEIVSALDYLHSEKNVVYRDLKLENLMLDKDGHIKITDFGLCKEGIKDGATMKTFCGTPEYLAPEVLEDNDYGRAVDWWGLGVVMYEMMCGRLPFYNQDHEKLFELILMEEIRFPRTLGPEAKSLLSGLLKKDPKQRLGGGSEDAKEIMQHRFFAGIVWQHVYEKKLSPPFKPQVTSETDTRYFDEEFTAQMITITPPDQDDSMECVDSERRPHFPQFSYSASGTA
T3 sequence (Q16832 22-855): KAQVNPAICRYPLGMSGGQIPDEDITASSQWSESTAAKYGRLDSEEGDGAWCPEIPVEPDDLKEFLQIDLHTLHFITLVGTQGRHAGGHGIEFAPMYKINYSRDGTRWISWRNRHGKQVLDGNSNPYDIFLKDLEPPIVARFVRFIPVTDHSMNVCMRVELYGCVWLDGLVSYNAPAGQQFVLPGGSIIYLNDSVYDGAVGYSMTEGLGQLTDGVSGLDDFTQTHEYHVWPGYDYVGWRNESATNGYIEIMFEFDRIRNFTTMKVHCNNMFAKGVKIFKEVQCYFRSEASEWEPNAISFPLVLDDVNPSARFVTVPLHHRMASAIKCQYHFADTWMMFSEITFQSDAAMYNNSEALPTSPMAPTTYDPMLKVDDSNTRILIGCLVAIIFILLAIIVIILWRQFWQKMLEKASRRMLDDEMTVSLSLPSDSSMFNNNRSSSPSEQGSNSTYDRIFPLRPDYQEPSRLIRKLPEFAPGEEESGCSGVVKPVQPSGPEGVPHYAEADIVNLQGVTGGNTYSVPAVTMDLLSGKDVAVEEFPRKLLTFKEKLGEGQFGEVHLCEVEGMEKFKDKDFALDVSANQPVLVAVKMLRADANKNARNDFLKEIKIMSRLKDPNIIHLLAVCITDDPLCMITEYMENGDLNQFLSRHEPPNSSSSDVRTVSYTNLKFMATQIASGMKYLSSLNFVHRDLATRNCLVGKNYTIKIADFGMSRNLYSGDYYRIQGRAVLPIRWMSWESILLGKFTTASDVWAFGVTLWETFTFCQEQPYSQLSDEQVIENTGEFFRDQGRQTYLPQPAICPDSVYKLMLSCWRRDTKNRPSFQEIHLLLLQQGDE

Compound: Nc1nc(N)c2nc(-c3cccc(O)c3)c(-c3cccc(O)c3)nc2n1 [Compound I, 6,7-bis-(3-hydroxyphenyl)-pteridine-2,4-diamine]
- Percent Control, MAPK1 (MAPK1): 97%
- remaining activity at 10 µM (PKBa): 62%
- Percent Control, DDR2 (DDR2): 88%
- VEGF-stimulated ERK phosphorylation (ERK phosphorylation): no influence
- Percent Control, CaMKIV (CaMKIV): 87%
- Percent Control, SGK (SGK): 95%
- Percent Control, Aurora-A (Aurora-A): 71%
- Percent Control, INK3(r) (INK3): 64%
